# Assay results from patent US20040157858A1, “Piperazine derivatives as tachykinin antagonists” (priority 2001, published 2004).
# Structures can show the parent of a compound that is named as a salt.
# System: not given
# Assay: not given
# Conditions: not given
row,melting point,Structure (SMILES)
1,110 to 112 °C,"Cc1cc(F)ccc1[C@H]1CNCCN1C(=O)N(C)Cc1cc(Cl)cc(Cl)c1.Cl [Example 3, 2-(S)-(4-Fluoro-2-methyl-phenyl)-piperazine-1-carboxylic Acid, (3,5-dichloro-benzyl)-methylamide Hydrochloride]"

# Target: T1, recombinant human NK1 receptors (Homo sapiens, UniProt P25103)
# T1 construct: expressed in transfected cells; host or cells: Chinese Hamster Ovary (CHO) cells, membrane preparation
# Assay: NK1-receptor binding affinity, displacement of [3H]-substance P
# Conditions: displacement of [3H]-substance P from recombinant human NK1 receptors expressed in CHO cell membranes; average of at least two determinations
# Procedure: NK1-receptor binding affinity has been determined in vitro by the compounds' ability to displace [3H]-substance P (SP) from recombinant human NK1 receptors expressed in Chinese Hamster Ovary (CHO) cell membranes.
# CHO cell membranes were prepared by using a modification of the method described by Dam T and Quirion R (Peptides, 7:855-864, 1986). Thus ligand binding was performed in 0.4 ml of 50 mM HEPES, pH 7.4, containing 3 mM MnCl2, 0.02% BSA, 0.5 nM [^3H]-Substance P (30÷56 Ci/mmol, Amersham), a final membrane concentration of 25 μg of protein/ml, and the test compounds. The incubation proceeded at room temperature for 40 min. Non-specific binding was determined using excess of Substance P (1 μM) and represents about 6% of the total binding.
# The affinity of the compound of the invention for NK1 receptor was determined using the NK1-receptor binding affinity method measuring in vitro by the compounds' ability to displace [3H]-substance P (SP) from recombinant human NK1 receptors expressed in Chinese Hamster Ovary (CHO) cell membranes. The affinity values are expressed as negative logarithm of the inhibition constant (Ki) of displacer ligands (pKi).
# The pKi values obtained as the average of at least two determinations with representative compounds of the invention are given in the following table: […]
# T1 sequence (P25103 whole entry): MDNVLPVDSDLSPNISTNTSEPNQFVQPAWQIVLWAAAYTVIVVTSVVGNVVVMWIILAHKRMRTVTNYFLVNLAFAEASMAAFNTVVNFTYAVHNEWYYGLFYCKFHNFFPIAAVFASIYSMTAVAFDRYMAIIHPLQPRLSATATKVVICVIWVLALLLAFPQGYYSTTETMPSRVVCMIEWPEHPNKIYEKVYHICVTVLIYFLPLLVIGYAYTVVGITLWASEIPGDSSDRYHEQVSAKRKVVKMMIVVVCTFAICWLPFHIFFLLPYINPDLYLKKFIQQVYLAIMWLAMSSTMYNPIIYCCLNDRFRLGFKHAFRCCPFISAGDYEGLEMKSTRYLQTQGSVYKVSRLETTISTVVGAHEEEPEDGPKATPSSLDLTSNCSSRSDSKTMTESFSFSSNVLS
row,Structure (SMILES),Ki
1,"Cc1cc(F)ccc1[C@H]1CNCCN1C(=O)N(C)Cc1cc(Cl)cc(Cl)c1.Cl [Example 3, 2-(S)-(4-Fluoro-2-methyl-phenyl)-piperazine-1-carboxylic Acid, (3,5-dichloro-benzyl)-methylamide Hydrochloride]",0.372 nM
2,"Cc1cc(F)ccc1[C@H]1CNCCN1C(=O)N(C)Cc1cc(Cl)ccc1Cl [Example 7, 2-(S)-(4-Fluoro-2-methyl-phenyl)-piperazine-1-carboxylic Acid, (2,5-dichloro-benzyl)-methylamide Hydrochloride]",0.851 nM
3,"Cc1cc(F)ccc1[C@H]1CNCCN1C(=O)N(C)Cc1ccc(Cl)c(Cl)c1 [Example 8, 2-(S)-(4-fluoro-2-methyl-phenyl)-piperazine-1-carboxylic Acid, (3,4-dichlorobenzyl)-methylamide Trifluoroacetate]",0.646 nM

# Other lines, results leading:
row,Ki,Structure (SMILES)
1,0.724 nM,"Cc1cc(C)cc(CN(C)C(=O)N2CCNC[C@@H]2c2ccc(F)cc2C)c1 [Example 2, 2-(S)-(4Fluoro-2-methyl-phenyl)piperazine-1-carboxylic Acid, (3,5-dimethyl-benzyl)-methylamide Hydrochloride]"
2,1.66 nM,"Cc1cc(F)ccc1[C@H]1CNCCN1C(=O)N(C)Cc1cc(F)cc(F)c1 [Example 6, 2-(S)-(4-Fluoro-2-methyl-phenyl)-piperazine-1-carboxylic Acid, (3,5-difluoro-benzyl)-methylamide Hydrochloride]"
